What was measured:
Assay type in all cases: in vivo
Setaria faberi [1] = test: Pre-emergence herbicidal activity, glasshouse pot test; details: pre-emergence spray, rate 1000 g/ha, evaluated after 13 days, scale 0-5
How it was run: (§1)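 Sown pots sprayed pre-emergence (day 1), acetone/water + 0.5% Tween 20 vehicle. Damage rated 0–5 at 13 days.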

Alopecurus myosuroides [2] = test: as above; details: pre-emergence spray, rate 1000 g/ha, evaluated after 13 days, scale 0-5
How it was run: as §1

zea mays [3] = test: as above; details: pre-emergence spray, rate 1000 g/ha, evaluated after 13 days, scale 0-5
How it was run: as §1

Amaranthus retroflexus [4] = test: as above; details: pre-emergence spray, rate 1000 g/ha, evaluated after 13 days, scale 0-5
How it was run: as §1

Echinochloa crus-galli [5] = test: as above; details: pre-emergence spray, rate 1000 g/ha, evaluated after 13 days, scale 0-5
How it was run: as §1

Solanum nigrum [6] = test: as above; details: pre-emergence spray, rate 1000 g/ha, evaluated after 13 days, scale 0-5
How it was run: as §1

Solanum nigrum [7] = test: Post-emergence herbicidal activity, glasshouse pot test; details: Application post-emergence, rate 1000 g/ha, evaluated after 13 days
Protocol: Seeds of a variety of test species were sown in standard soil in pots. After 8 days cultivation (post-emergence) under controlled conditions in a glasshouse (at 24/16° C., day/night; 14 hours light; 65% humidity), the plants were sprayed with an aqueous spray solution derived from the formulation of the technical active ingredient in acetone/water (50:50) solution containing 0.5% Tween 20 (polyoxyethelyene sorbitan monolaurate, CAS RN 9005-64-5). The test plants were then grown in a glasshouse under controlled conditions (at 24/16° C., day/night; 14 hours light; 65% humidity) and watered twice daily. After 13 days, the test was evaluated (5=total damage to plant; 0=no damage to plant).
ABUTH=Abutilon theophrasti; SOLNI=Solanum nigrum; AMARE=Amaranthus retroflexus; SETFA=Setaria faberi; ALOMY=Alopecurus myosuroides; ECHCG=Echinochloa crus-galli, ZEAMX=zea mays.

Setaria faberi [8] = test: as above; set-up: key: 0 = no damage to plant, 5 = total damage to plant; details: Application post-emergence, rate 1000 g/ha, evaluated after 13 days
How it was run: (§2)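 Damage rated 0 (none) to 5 (total) 13 days after spraying. Plants were treated post-emergence at 8 days after sowing, using an acetone/water (50:50) formulation with 0.5% Tween 20 diluted to an aqueous spray.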

Alopecurus myosuroides [9] = test: as above; set-up: key: 0 = no damage to plant, 5 = total damage to plant; details: Application post-emergence, rate 1000 g/ha, evaluated after 13 days
How it was run: as §2

zea mays [10] = test: as above; set-up: key: 0 = no damage to plant, 5 = total damage to plant; details: Application post-emergence, rate 1000 g/ha, evaluated after 13 days
How it was run: as §2

Amaranthus retroflexus [11] = test: as above; set-up: key: 0 = no damage to plant, 5 = total damage to plant; details: Application post-emergence, rate 1000 g/ha, evaluated after 13 days
How it was run: as §2

Echinochloa crus-galli [12] = test: as above; set-up: key: 0 = no damage to plant, 5 = total damage to plant; details: Application post-emergence, rate 1000 g/ha, evaluated after 13 days
How it was run: as §2

SMILES | SETFA damage score, application pre-emergence (Setaria faberi [1]) | ALOMY damage score, application pre-emergence (Alopecurus myosuroides [2]) | ZEAMX damage score, application pre-emergence (zea mays [3]) | AMARE damage score, application pre-emergence (Amaranthus retroflexus [4]) | ECHCG damage score, application pre-emergence (Echinochloa crus-galli [5]) | SOLNI damage score, application pre-emergence (Solanum nigrum [6]) | SOLNI herbicidal damage score (Solanum nigrum [7]) | SETFA herbicidal damage score (Setaria faberi [8]) | ALOMY herbicidal damage score (Alopecurus myosuroides [9]) | ZEAMX herbicidal damage score (zea mays [10]) | AMARE herbicidal damage score (Amaranthus retroflexus [11]) | ECHCG herbicidal damage score (Echinochloa crus-galli [12])
CC1=C(Cl)C(=O)N(c2ccc(C)cn2)C1O (stereo not drawn) [AF69] | 4 | 3 | 1 | 5 | 4 | 5 | 5 | 5 | 5 | 3 | 5 | 5
CC1=C(Cl)C(=O)N(c2ccc(C(F)(F)F)cn2)C1O (stereo not drawn) [AF70] | 5 | 3 | 0 | 5 | 3 | 5 | 5 | 5 | 5 | 2 | 5 | 5
CC1=C(Br)C(=O)N(c2ccc(C(F)(F)F)cn2)C1O (stereo not drawn) [AG2] | 4 | 3 | 0 | 5 | 1 | 4 | 5 | 5 | 4 | 2 | 5 | 5

Reference: US9963445B2, “Chemical compounds” (SYNGENTA PARTICIPATIONS AG, priority 2013, dated 2018)
